# Source: patent US6855549B1, “Methods and compositions for increasing the infectivity of gene transfer vectors” (The University of Iowa Research Foundation, priority 1998, dated 2005)
# Columns and labels:
# [1] = system: differentiated human airway epithelial cells; type: cell-based; details: 5 μM AZT at addition of FIV-βgal vector/EGTA to apical surface
# [2] = system: differentiated human airway epithelia; assay: Transepithelial resistance of KGF-treated airway epithelia with Ca2+ chelators; type: cell-based
# Protocol: Differentiated epithelial cells were treated with 100 ng/ml KGF for 24 hr. Different concentrations of each calcium chelator in HEPES/HCl (pH 7.4) or in isotonic HEPES/saline (pH 7.4) buffer were mixed with vector buffer and applied to the apical surface for times as specified (Wang et al., 1998). Transepithelial resistance was measured with an Ohmmeter (EVOM; World Precision Instruments, Inc. Sarasota, Fla.) by adding cell culture media to the apical surface and the values were compared to untreated controls.
# To understand whether the tonicity of the vector solution affects epithelial permeability and gene transfer efficiency, hypotonic (40 mmol/kg) or isotonic (220 mmol/kg) solutions of 6 mM EGTA, EDTA or BAPTA were added to the MuLV vector buffer and applied to the apical surface of differentiated airway epithelial cells pre-treated with KGF. At specific time intervals, transepithelial resistance (R1) was measured using an Ohmmeter.
# [3] = system: rabbit tracheal epithelium; assay: Tracheal transepithelial voltage (Vt) in anesthetized rabbits; type: in vivo; details: rabbit, in vivo
# Protocol: Rabbit studies. The transepithelial electrical potential difference across the rabbit tracheal epithelium (Vt) was measured using a modification of previously described methods (Zabner et al., 1996). The reference electrode was a subcutaneous needle connected with sterile normal saline solution to a silver/silver chloride pellet. Adult New Zealand white rabbits (n=4/group) were anesthetized with 32 mg/kg ketamine, 5.1 mg/kg xylazine and 0.8 mg/kg acepromazine intramuscularly and placed with the head in the dependent position. An exploring electrode (pediatric size 8 Teflon-coated latex double lumen Foley catheter, modified Ruseh, Inc., Duluth, Ga.) was inserted into the tracheal lumen via a tracheotomy incision. One lumen of the catheter was filled with sterile normal saline solution and was connected to a silver/silver chloride pellet. Voltage was measured with a voltmeter connected to a strip chart recorder. The catheter was then left in that position for the entire recording period. The solutions were administered through the second lumen in the following order: 1) Normal saline for 5 min; 2) Sterile water with 10 mM EGTA for 10 min; 3) Normal saline with 10 mM EGTA for 5 min; and 4) Normal saline with 10 mM EGTA plus 100 μM amiloride for 5 min. Measurements of Vt were read by two investigators who were blinded to the treatment received. There wre no discrepancies in readings of greater than 2 mV between the investigators. Disruption of epithelial junctions was assessed by detecting a fall in […] Vt after perfusion with the chelator, and by the loss of amiloride-sensitive Vt after perfusion with the chelator solution.
# [4] = system: human nasal epithelium; assay: Nasal transepithelial voltage (Vt) in human volunteers; type: in vivo; details: human, in vivo
# Protocol: Human studies. The Vt across the nasal epithelium was measured in 6 volunteers using previously described methods (Zabner et al., 1996). The protocol followed was identical to that described above for the rabbit studies. […] The catheter was then left in that position for the entire recording period. The solutions were administered through the second lumen in the following order: 1) Normal saline for 5 min; 2) Sterile water with 10 mM EGTA or 10 mM EDTA for 10 min; 3) Nommal saline with 10 mM EGTA or 10 mM EDTA for 5 min; and 4) Normal saline with 10 mM, EGTA or 10 mM EDTA plus […] amiloride for 5 min. Measurements of Vt were read by two investigators who were blinded and wvere checked by a third investigator if there was a discrepancy of more than 2 mV. Disruption of epithelial junctions was assessed by detecting a fall in nasal Vt after perfusion with the chelator, and by the loss of amiloride-sensitive Vt after perfusion with the. chelator solution.
# [5] = system: differentiated human airway epithelia; type: cell-based
# [6] = system: human airway epithelia; assay: BrdU labeling of differentiated human airway epithelia; type: cell-based; details: for BrdU incorporation versus control epithelia: EGF 200 ng/ml, heregulin 5 nM
# Protocol: BrdU immunohistochemistry. BrdU labeling and immunostaining was performed using a kit from Zymed Laboratories Inc. (South San Francisco, Calif.). In studies that investigate the effects of growth factors, the cells may be treated with 50-100 ng/ml growth factor for 36 h. A 1:100 dilution of the BrdU labeling reagent was added to the culture media and cells labeled for 4 hours followed by fixation in 10% neutralized Formalin. BrdU histochemistry was performed following the methods of the Zymed BrdU kit. Labeled nuclei stained brown under these conditions. Epithelial cell preparations were examined microscopically en face or in cross sections of paraffin embedded membranes and the percentage of brown staining nuclei determined. Hematoxylin or 4′,6-diamidino-2-phenylindole, dibydrochloride (DAPI) (Molecular Probes, Eugene, Oreg.) were used for counterstains.
# To determine whether growth factors are mitogenic to human airway epithelia, primary cultures of cells grown at the air-liquid interface were utilized. These cultures have ion transport properties and morphology similar to the intact surface epithelium (Smith et al., 1996; Kondo et al., 1991) and after 14 days in culture the cells are well-differentiated, ciliated, and have ion transport properties similar to the intact airways (Zabner et al., 1996; Yamaya et al., 1992). […] After 24 hours of growth factor treatment, growth factor administration doubles the monolayer cell number compared to control. HGF treatment (200 ng/ml) increased cell labeling to 17-36%, while 5-10% of untreated controls were BrdU positive (n=3).
# [7] = system: human airway epithelia; assay: [3H] thymidine incorporation in primary cultures of human airway epithelia; type: cell-based; details: 200 ng/ml HGF
molecule,measurement,setting,value
"Cc1cn([C@H]2C[C@H](N=[N+]=[N-])[C@@H](CO)O2)c(=O)[nH]c1=O [AZT, 3′-azido-3′ deoxythymidine]",expression of vector encoded product (pseudotransduction control),[1],showed no significant expression of vector encoded product
O=C(O)CN(CC(=O)O)c1ccccc1OCCOc1ccccc1N(CC(=O)O)CC(=O)O [BAPTA],"fall of R1, isotonic solution","[2]; 6 mM, isotonic","quickly dropped R1, similar to the hypotonic solutions"
O=C(O)CN(CCN(CC(=O)O)CC(=O)O)CC(=O)O [EDTA],time required to decrease R1 to ~20% of the controls,"[2]; 6 mM chelator, isotonic (220 mmol/kg)",Sixty
N=C(N)NC(=O)c1nc(Cl)c(N)nc1N [amiloride],Vt response to amiloride in control tracheas perfused with saline,[3],the anticipated fall in Vt in response to perfusion with amiloride
same,nasal Vt response to amiloride in control studies,[4],there was a significant fall in Vt with amiloride treatment
O [water],effect on proliferation,"[5]; application of H2O or EGTA to epithelia, control studies",had no effect on proliferation
same,epithelia expressing β-gal,"[5]; pretreated with water alone, vector to mucosal surface, mean±SE, n=13",3±0.5%
EGF: epidermal growth factor,BrdU incorporation versus control epithelia,[6],increased BrdU incorporation over control epithelia
"HGF: Hepatocyte growth factor, mitogen for pulmonary epithelia",stimulation of cell division measured by [3H] thymidine incorporation,[7],3 fold
same,BrdU cell labeling,"[6]; HGF 200 ng/ml, untreated controls 5-10% BrdU positive, n=3",17-36%
heregulin,BrdU incorporation versus control epithelia,[6],increased BrdU incorporation over control epithelia
